Patent publication US10221139B2, “Inhibitors of histone demethylases” (Gilead Sciences, Inc., priority 2012, dated 2019)

What was measured:
Type in all cases: biochemical
GASC1 (KDM4C, JMJD2C) = target: T1, GASC1 (KDM4C, JMJD2C) (Homo sapiens, UniProt Q9H3R0); assay: Histone lysine demethylase AlphaLISA assay, GASC1; conditions: substrate BK9M3
T1 construct: 1-349; host or cells: E. coli
T1 sequence (Q9H3R0 1-349): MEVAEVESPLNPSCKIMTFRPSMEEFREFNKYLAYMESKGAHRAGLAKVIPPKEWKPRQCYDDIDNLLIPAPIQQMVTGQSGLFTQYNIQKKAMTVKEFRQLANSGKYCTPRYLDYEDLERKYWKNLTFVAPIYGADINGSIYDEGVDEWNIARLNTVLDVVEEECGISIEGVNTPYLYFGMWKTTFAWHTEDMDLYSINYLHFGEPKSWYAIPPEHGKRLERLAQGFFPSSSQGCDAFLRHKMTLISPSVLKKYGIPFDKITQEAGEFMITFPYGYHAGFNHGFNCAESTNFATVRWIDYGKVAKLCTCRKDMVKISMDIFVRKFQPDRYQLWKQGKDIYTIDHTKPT
Protocol: (§1) Example 2: Histone Lysine Demethylase AlphaLISA Assays for IC50 Value Determination
(§2) Assays are performed analogously to the protocol described by Perkin Elmer (Roy et al. Perkin Elmer Technical Note: AlphaLISA #12, April 2011).
(§3) Enzymes are dissolved in enzyme buffer and incubated for 10 min before 5 μL is added to 5 μL 3% DMSO solutions of compounds in enzyme buffer. Incubated for another 10 minutes, before 5 μL substrate solution is added and the reaction mixture is incubated at room temperature for the given period. 10 μL acceptor beads, suspended at given dilutions in Epigenetic Buffer (Perkin Elmer AL008) from stock, are added and the suspension is incubated 60 minutes in the dark at room temperature, before 10 μL suspension (at the given dilutions in Epigenetic Buffer) of streptavidin donor beads (Perkin Elmer 6760002) in Epigenetic Buffer is added. After incubation at room temperature in the dark the plates are read. Reaction conditions are seen in Table 2b.

UTX (KDM6A) = target: T2, UTX (KDM6A) (Homo sapiens, UniProt O15550); assay: Histone lysine demethylase AlphaLISA assay, UTX; conditions: substrate BK27M3
T2 construct: 919-1401; host or cells: E. coli
Protocol: as §1, §2, §3

PLU1 (KDM5B) = target: T3, PLU1 (KDM5B) (Homo sapiens, UniProt Q9UGL1); assay: Histone lysine demethylase AlphaLISA assay, PLU1; conditions: substrate H3K4M3B
T3 construct: 1-809; host or cells: E. coli
T3 sequence (Q9UGL1 1-809): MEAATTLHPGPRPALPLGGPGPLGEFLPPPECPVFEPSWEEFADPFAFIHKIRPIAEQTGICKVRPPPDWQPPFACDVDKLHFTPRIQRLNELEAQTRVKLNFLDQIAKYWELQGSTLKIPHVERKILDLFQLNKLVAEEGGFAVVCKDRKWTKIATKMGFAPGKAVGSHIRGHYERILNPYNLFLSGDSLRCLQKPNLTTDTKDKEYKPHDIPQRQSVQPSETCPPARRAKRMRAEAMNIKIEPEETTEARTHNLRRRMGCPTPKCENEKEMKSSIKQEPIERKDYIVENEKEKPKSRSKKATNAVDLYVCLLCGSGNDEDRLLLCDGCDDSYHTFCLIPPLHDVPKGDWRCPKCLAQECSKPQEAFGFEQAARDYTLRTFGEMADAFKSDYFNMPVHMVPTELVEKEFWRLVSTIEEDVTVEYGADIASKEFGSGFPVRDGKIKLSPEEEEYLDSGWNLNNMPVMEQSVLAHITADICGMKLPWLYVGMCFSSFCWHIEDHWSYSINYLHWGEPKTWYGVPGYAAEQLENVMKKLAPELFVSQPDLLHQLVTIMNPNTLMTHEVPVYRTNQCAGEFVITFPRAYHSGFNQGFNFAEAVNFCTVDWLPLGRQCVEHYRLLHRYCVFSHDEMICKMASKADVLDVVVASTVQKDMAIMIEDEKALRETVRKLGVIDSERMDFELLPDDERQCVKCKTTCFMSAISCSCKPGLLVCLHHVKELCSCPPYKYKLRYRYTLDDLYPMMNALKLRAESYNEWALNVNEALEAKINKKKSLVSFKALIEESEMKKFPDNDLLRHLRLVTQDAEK
Protocol: as §1, §2, §3

T2 sequence (O15550 919-1401): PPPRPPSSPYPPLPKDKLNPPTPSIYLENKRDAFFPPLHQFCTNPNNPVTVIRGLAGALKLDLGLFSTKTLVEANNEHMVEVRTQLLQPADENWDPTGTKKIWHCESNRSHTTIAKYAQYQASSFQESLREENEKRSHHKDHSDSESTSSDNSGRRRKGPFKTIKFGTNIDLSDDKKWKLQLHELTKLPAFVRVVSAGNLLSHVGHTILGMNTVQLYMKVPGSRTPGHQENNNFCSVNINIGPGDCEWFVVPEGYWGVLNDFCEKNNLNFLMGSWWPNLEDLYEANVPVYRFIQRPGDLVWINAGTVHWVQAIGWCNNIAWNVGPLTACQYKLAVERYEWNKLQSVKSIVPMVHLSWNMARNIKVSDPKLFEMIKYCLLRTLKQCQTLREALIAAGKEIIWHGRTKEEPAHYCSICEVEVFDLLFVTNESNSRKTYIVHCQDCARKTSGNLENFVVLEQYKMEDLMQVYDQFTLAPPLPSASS

Compound	IC50 (GASC1 (KDM4C, JMJD2C)) [nM]	IC50 (UTX (KDM6A)) [nM]	IC50 (PLU1 (KDM5B)) [nM]
C=CC(CCNC(=O)C(F)(F)F)OC(=O)c1ccnc(CNCC(=O)N(CC)CCN(C)C)c1 (stereo not drawn) [#66, 5-(trifluoroacetamido)pent-1-en-3-yl 2-{[({[2-(dimethylamino)ethyl](ethyl)carbamoyl}methyl)amino]methyl}pyridine-4-carboxylate]	100 to 1000	< 100	100 to 1000
CCN(CC)CCCCNCc1cc(C(=O)OCCN(C)C)ccn1 [#53, 2-(dimethylamino)ethyl 2-({[4-(diethylamino)butyl]amino}methyl)pyridine-4-carboxylate]	< 100	≥ 1000	< 100
CCN(CCN(C)C)C(=O)CNCc1cc(C(=O)Nc2nccn2C)ccn1 [#89, 2-{[({[2-(dimethylamino)ethyl](ethyl)carbamoyl}methyl)amino]methyl}-N-(1-methyl-1H-imidazol-2-yl)pyridine-4-carboxamide]	100 to 1000	< 100	< 100
COCCN1CCN(C(=O)CNCc2cc(C(=O)O)ccn2)CC1 [#16, 2-[({2-[4-(2-methoxyethyl)piperazin-1-yl]-2-oxoethyl}amino)methyl]pyridine-4-carboxylic acid]	< 100	≥ 1000	< 100
O=C(O)c1ccnc(CNCC(=O)N2CCC[C@@H]2CN2CCCC2)c1 [#18, 2-[({2-oxo-2-[(2R)-2-(pyrrolidin-1-ylmethyl)pyrrolidin-1-yl]ethyl}amino)methyl]pyridine-4-carboxylic acid]	< 100	≥ 1000	< 100
CCOC(=O)N(C)c1ccc(COC(=O)c2ccnc(CNCCCCN(CC)CC)c2)cc1 [#60, {4-[(ethoxycarbonyl)(methyl)amino]phenyl}methyl 2-({[4-(diethylamino)butyl]amino}methyl)pyridine-4-carboxylate]	≥ 1000	< 100	< 100
CN(Cc1ccnn1C)C(=O)CNCc1cc(C(=O)O)ccn1 [#27, 2-{[({methyl[(1-methyl-1H-pyrazol-5-yl)methyl]carbamoyl}methyl)amino]methyl}pyridine-4-carboxylic acid]	< 100	≥ 1000	< 100
C#CCN(C)Cc1cc(C(=O)O)ccn1 [#7, 2-{[methyl(prop-2-yn-1-yl)amino]methyl}pyridine-4-carboxylic acid]	100 to 1000	≥ 1000	100 to 1000
4-methoxyphenyl 2-({[4-(diethylamino)butyl]amino}methyl)pyridine-4-carboxylate [#51]	100 to 1000	≥ 1000	< 100
CSCCNCc1cc(C(=O)O)ccn1 [#12, 2-({[2-(methylsulfanyl)ethyl]amino}methyl)pyridine-4-carboxylic acid]	< 100	≥ 1000	< 100
C=CC(CCN(C)C(=O)C(F)(F)F)OC(=O)c1ccnc(CNCC(=O)N(CC)CCN(C)C)c1 (stereo not drawn) [#67, 5-(2,2,2-trifluoro-N-methylacetamido)pent-1-en-3-yl 2-{[({[2-(dimethylamino)ethyl](ethyl)carbamoyl}methyl)amino]methyl}pyridine-4-carboxylate]	100 to 1000	< 100	100 to 1000
O=C(CNCc1cc(C(=O)O)ccn1)NC1CCN(Cc2ccco2)CC1 [#31, 2-{[({[1-(furan-2-ylmethyl)piperidin-4-yl]carbamoyl}methyl)amino]methyl}pyridine-4-carboxylic acid]	< 100	100 to 1000	< 100
O=C(O)c1ccnc(CNCCCNCCCN2CCCC2)c1 [#21, 2-{[(3-{[3-(pyrrolidin-1-yl)propyl]amino}propyl)amino]methyl}pyridine-4-carboxylic acid]	< 100	≥ 1000	< 100
CCOC(=O)c1ccccc1OC(=O)c1ccnc(CNCC(=O)N(CC)CCN(C)C)c1 [#59, 2-(ethoxycarbonyl)phenyl 2-{[({[2-(dimethylamino)ethyl](ethyl)carbamoyl}methyl)amino]methyl}pyridine-4-carboxylate]	< 100	< 100	< 100
CC(C)CCNCc1cc(C(=O)O)ccn1 [#22, 2-{[(3-methylbutyl)amino]methyl}pyridine-4-carboxylic acid]	100 to 1000	≥ 1000	100 to 1000
CN1CCN(Cc2ccc(CN(C)C(=O)CNCc3cc(C(=O)O)ccn3)cc2)CC1 [#42, 2-[({[methyl({4-[(4-methylpiperazin-1-yl)methyl]phenyl}methyl)carbamoyl]methyl}amino)methyl]pyridine-4-carboxylic acid]	< 100	100 to 1000	< 100
O=C(CNCc1cc(C(=O)O)ccn1)NC1CCN(CCCc2ccccc2)CC1 [#30, 2-{[({[1-(3-phenylpropyl)piperidin-4-yl]carbamoyl}methyl)amino]methyl}pyridine-4-carboxylic acid]	< 100	≥ 1000	< 100
{4-[(ethoxycarbonyl)amino]phenyl}methyl 2-({[4-(diethylamino)butyl]amino}methyl)pyridine-4-carboxylate [#55]	100 to 1000	≥ 1000	< 100
CCOC(=O)c1ccccc1OC(=O)c1ccnc(CNCCCCN(CC)CC)c1 [#52, 2-(ethoxycarbonyl)phenyl 2-({[4-(diethylamino)butyl]amino}methyl)pyridine-4-carboxylate]	100 to 1000	≥ 1000	< 100
2-[({2-[(2S)-1-benzylpyrrolidin-2-yl]ethyl}amino)methyl]pyridine-4-carboxylic acid [#45]	< 100	≥ 1000	< 100
O=C(O)c1ccnc(CNCc2ccc(-c3ccccc3)o2)c1 [#10, 2-({[(5-phenylfuran-2-yl)methyl]amino}methyl)pyridine-4-carboxylic acid]	≥ 1000	≥ 1000	100 to 1000
CN(CCCNCc1cc(C(=O)O)ccn1)Cc1ccccc1F [#36, 2-{[(3-{[(2-fluorophenyl)methyl](methyl)amino}propyl)amino]methyl}pyridine-4-carboxylic acid]	< 100	≥ 1000	< 100
CCN(CC)CCCCNCc1cc(C(=O)Oc2c(OC)cccc2OC)ccn1 [#56, 2,6-dimethoxyphenyl 2-({[4-(diethylamino)butyl]amino}methyl)pyridine-4-carboxylate]	100 to 1000	≥ 1000	< 100
O=C(CNCc1cc(C(=O)O)ccn1)NC1CCN(CCc2ccccc2)C1 (stereo not drawn) [#39, 2-{[({[1-(2-phenylethyl)pyrrolidin-3-yl]carbamoyl}methyl)amino]methyl}pyridine-4-carboxylic acid]	< 100	≥ 1000	< 100
O=C(O)c1ccnc(CNCC(=O)N2CCCCC2CO)c1 (stereo not drawn) [#24, 2-[({2-[2-(hydroxymethyl)piperidin-1-yl]-2-oxoethyl}amino)methyl]pyridine-4-carboxylic acid]	< 100	≥ 1000	< 100
CCN(CCN(C)C)C(=O)CNCc1cc(C(=O)OC(C)CCN(C)C(=O)C(F)(F)F)ccn1 (stereo not drawn) [#64, 4-(2,2,2-trifluoro-N-methylacetamido)butan-2-yl 2-{[({[2-(dimethylamino)ethyl](ethyl)carbamoyl}methyl)amino]methyl}pyridine-4-carboxylate]	< 100	≥ 1000	100 to 1000
